In patent US7445641B1, “Biomaterials modified with superoxide dismutase mimics” (priority 1999, dated 2008):

Assay: Stopped-flow kinetic analysis of superoxide dismutation
Assay type: biochemical
Parameters: kcat pH 8.1 / kcat pH 7.4: unit not given here
Excerpt: Stopped-flow kinetic analysis is an accurate and direct method for quantitatively monitoring the decay rates of superoxide in water.
For the attainment of consistent and accurate measurements all reagents were biologically clean and metal-free. To achieve this, all buffers (Calbiochem) were biological grade, metal-free buffers and were handled with utensils which had been washed first with 0.1N HCl, followed by purified water, followed by a rinse in a 10^−4 M EDTA bath at pH 8, followed by a rinse with purified water and dried at 65° C. for several hours. Dry DMSO solutions of potassium superoxide (Aldrich) were prepared under a dry, inert atmosphere of argon in a Vacuum Atmospheres dry glovebox using dried glassware. The DMSO solutions were prepared immediately before every stopped-flow experiment. A mortar and pestle were used to grind the yellow solid potassium superoxide (~100 mg). The powder was then ground with a few drops of DMSO and the slurry transferred to a flask containing an additional 25 ml of DMSO. The resultant slurry was stirred for ½ h and then filtered. This procedure gave reproducibly ~2 mM concentrations of superoxide in DMSO. These solutions were transferred to a glovebag under nitrogen in sealed vials prior to loading the syringe under nitrogen. It should be noted that the DMSO/superoxide solutions are extremely sensitive to water, heat, air, and extraneous metals. A fresh, pure solution has a very slight yellowish tint.
Water for buffer solutions was delivered from an in-house deionized water system to a Barnstead Nanopure Ultrapure Series 550 water system and then double distilled, first from alkaline potassium permanganate and then from a dilute EDTA solution. For example, a solution containing 1.0 g of potassium permanganate, 2 liters of water and additional sodium hydroxide necessary to bring the pH to 9.0 were added to a 2-liter flask fitted with a solvent distillation head. This distillation will oxidize any trace of organic compounds in the water. The final distillation was carried out under nitrogen in a 2.5-liter flask containing 1500 ml of water from the first still and 1.0×10^−6 M EDTA. This step will remove remaining trace metals from the ultrapure water. To prevent EDTA mist from volatilizing over the reflux arm to the still head, the 40-cm vertical arm was packed with glass beads and wrapped with insulation. This system produces deoxygenated water that can be measured to have a conductivity of less than 2.0 nanomhos/cm^2.
The stopped-flow spectrometer system was designed and manufactured by Kinetic Instruments Inc. (Ann Arbor, Mich.) and was interfaced to a MAC IICX personal computer. The software for the stopped-flow analysis was provided by Kinetics Instrument Inc. and was written in QuickBasic with MacAdios drivers. Typical injector volumes (0.10 ml of buffer and 0.006 ml of DMSO) were calibrated so that a large excess of water over the DMSO solution were mixed together. The actual ratio was approximately 19/1 so that the initial concentration of superoxide in the aqueous solution was in the range 60-120 μM. […]

| SMILES | kcat pH 7.4 | kcat pH 8.1 |
| --- | --- | --- |
| [Cl][Mn]1234([Cl])[N]5CC[N]1CC[N]2CC[N]3CC[N]4CC5 [Compound 1] | 4.13 | 2.24 |
| [Cl][Mn]1234([Cl])[N]5CC[N]1CC[N]2CC(Cc1ccccc1)[N]3CC[N]4CC5 (stereo not shown) [Compound 2] | 7.21 | 2.57 |
| C#CCC1C[N]2CC[N]3CC[N]4CC[N]5CC[N]1[Mn]4352([Cl])[Cl] (stereo not shown) [Compound 4] | – | 1.75 |
| C[C@@H]1C[N]2[C@@H](C)C[N]3[C@@H](C)C[N]4[C@H](C)C[N]5[C@@H](C)C[N]1[Mn]4523([Cl])[Cl] [Compound 5] | 3.82 | 3.90 |
| Oc1ccccc1CC1C[N]2CC[N]3CC[N]4CC[N]5CC[N]1[Mn]4352([Cl])[Cl] (stereo not shown) [Compound 6] | 6.99 | 3.83 |
| [Cl][Mn]1234([Cl])[N]5CC[N]1CC[N]2[C@@H](Cc1cnc[nH]1)C[N]3[C@H](Cc1cnc[nH]1)C[N]4CC5 [Compound 7] | 2.00 | 1.58 |
| CNCCCC[C@@H]1C[N]2CC[N]3CC[N]4CC[N]5[C@@H](CCCCNC)C[N]1[Mn]3425([Cl])[Cl] [Compound 8] | 5.95 | 5.90 |
| FC(F)(F)CC1C[N]2CC[N]3CC[N]4CC[N]5CC[N]1[Mn]4352([Cl])[Cl] (stereo not shown) [Compound 9] | 2.77 | 1.68 |
| OC[C@@H]1C[N]2[C@@H](CO)C[N]3[C@@H](CO)C[N]4[C@H](CO)C[N]5[C@@H](CO)C[N]1[Mn]4523([Cl])[Cl] [Compound 10] | 2.68 | 2.68 |
| NCCC[C@H]1C[N]2[C@@H]3CCCC[C@H]3[N]3CC[N]4CC[N]5CC[N]1[Mn]5432([Cl])[Cl] [Compound 11] | 4.79 | 2.85 |
| [Cl-].[Cl-].[NH3+]CCCC[C@@H]1C[N]2[C@@H](CCCC[NH3+])C[N]3[C@@H]4CCCC[C@H]4[N]4CC[N]5CC[N]1[Mn]5243([Cl])[Cl] [Compound 12] | 10.20 | 5.39 |
| C=CCC1C[N]2CC[N]3CC[N]4CC[N]5CC[N]1[Mn]4352([Cl])[Cl] (stereo not shown) [Compound 13] | – | 1.63 |
| NCCC[C@H]1C[N]2[C@H]3CCCC[C@H]3[N]3CC[N]4[C@H]5CCCC[C@H]5[N]5CC[N]1[Mn]5342([Cl])[Cl] [Compound 14] | 7.58 | 3.84 |
| C[C@H](CCCNCCC[C@H]1C[N]2[C@@H]3CCCC[C@H]3[N]3CC[N]4CC[N]5CC[N]1[Mn]5432([Cl])[Cl])[C@H]1CCC2[C@@H]3CC[C@@H]4C[C@H](O)CC[C@]4(C)C3CC[C@@]21C (stereo partly shown) [Compound 15] | 2.41 | 0.77 |
| NCC[C@H]1C[N]2[C@@H](CCN)C[N]3[C@@H]4CCCC[C@H]4[N]4CC[N]5CC[N]1[Mn]5243([Cl])[Cl] [Compound 16] | 2.48 | 1.97 |
| [Cl][Mn]1234([Cl])[N]5CC[N]1C1CCCCC1[N]2CC[N]3C1CCCCC1[N]4CC5 (stereo not shown) [Compound 17] | 12.60 | 4.09 |
| C[C@@H]1C[N]2[C@H]3CCCC[C@H]3[N]3CC[N]4C5CCCCC5[N]5CC[N]1[Mn]5432([Cl])[Cl] (stereo partly shown) [Compound 18] | 15.00 | 4.00 |
| C[C@@H]1C[N]2[C@@H](C)C[N]3[C@@H]4CCCC[C@H]4[N]4C[C@H](C)[N]5CC[N]1[Mn]4352([Cl])[Cl] [Compound 19] | 8.48 | 4.08 |
